Drawing on ChEMBL document CHEMBL3817727, “Fluorinated thiazolidinols cause cell death in A549 lung cancer cells via PI3K/AKT/mTOR and MAPK/ERK signalling pathways” (Medchemcomm, 2016), this text covers Activity and IC50 for one compound.

The subject of assay [1] is A549. Nature of the assay: Cell cycle arrest in human A549 cells assessed as accumulation at subG1 phase at 10 uM after 24 hrs by propidium iodide staining based flow cytometry (reference value: 1.11%). In kind it is functional. In general terms: In flow cytometry, cells or beads pass a laser one at a time.
The test system of assay [2] is A549. Nature of the assay: Cell cycle arrest in human A549 cells assessed as accumulation at G0/G1 phase at 10 uM after 24 hrs by propidium iodide staining based flow cytometry (reference value: 69.5%). The format is functional.
Assay [3] concerns MCF7. Nature of the assay: Cytotoxicity against human MCF7 cells assessed as reduction in cell viability after 24 hrs by MTT assay. In kind it is functional, cell-based. To be noted: MCF7, 24 h.
For assay [4], the system named is MDA-MB-231. Nature of the assay: Cytotoxicity against human MDA-MB-231 cells assessed as reduction in cell viability after 24 hrs by MTT assay. In kind it is functional, cell-based. To be noted: MDA-MB-231, 24 h. In general terms: Tetrazolium dyes change colour on reduction, which living cells bring about.
Assay [5] has as its system HeLa. Nature of the assay: Cytotoxicity against human HeLa cells assessed as reduction in cell viability after 24 hrs by MTT assay. The format is functional, cell-based.
For assay [6], the system named is A549. Nature of the assay: Cell cycle arrest in human A549 cells assessed as accumulation at S phase at 10 uM after 24 hrs by propidium iodide staining based flow cytometry (reference value: 8.85%). In kind it is functional.
Assay [7] deals with A549. Nature of the assay: Cytotoxicity against human A549 cells assessed as reduction in cell viability after 24 hrs by MTT assay. The format is functional, cell-based. To be noted: A549, 24 h.
In assay [8] the test system is A549. Nature of the assay: Cell cycle arrest in human A549 cells assessed as accumulation at G2/M phase at 10 uM after 24 hrs by propidium iodide staining based flow cytometry (reference value: 21.58%). The format is functional.

With `O=c1cc(N2CCOCC2)oc2c(-c3ccccc3)cccc12` [LY-294002], the Activity in assay [1] came out at 5.15%; in assay [2], 82.95%; in assay [6], 3.24%; in assay [8] it was 9.24%. Besides, the IC50 – broadly, the concentration that inhibits the measured activity by half – stood at 29.1 µM in assay [3], 9.7 µM in assay [4], 20.5 µM in assay [5] and 17.7 µM in assay [7].
